According to PubChem BioAssay AID179 (DTP/NCI, 2004):
Values joined by “and” are separate entries in the source; they are usually repeats but may differ in a detail not shown here. Equal values may be shown once. Active and inactive are the calls of the source.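 How the source made its calls: active means compounds giving half or more protection of infected cells from virus-caused growth loss, again on retest; inactive means the rest.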 Where a SMILES comes first, the peptide text is derived from it. [ ]: non-standard residue; d: D form. The star is where a group is joined. NMeF = CN[CH](Cc1ccccc1)C(=O)O; NMeV = CN[CH](C(=O)O)C(C)C; Cbz = O=C(OCc1ccccc1)*; Boc = CC(C)(C)OC(=O)*

Test system: CEM cells HIV-1 protection, formazan growth assay
Assay: NCI AIDS Antiviral Assay
Conditions: for IC50: measured here: growth of uninfected CEM cells
How it was run: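 CEM (human) cells, HIV-1 infected vs uninfected, 5-point dosing, formazan growth read-out. Retest threshold 50% protection.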

| Compound | EC50 | IC50 | outcome |
| --- | --- | --- | --- |
| N#CCCN(CCC#N)c1ccc(/C=C(\NC(=O)c2cc([N+](=O)[O-])ccc2Cl)C(=O)Nc2ccccc2)cc1 | > 13.2 µM | > 13.2 µM |  |
| COC1Cc2ccccc2C1O (stereo unspecified) |  |  | inactive |
| CC(=O)NNc1ncc(C(=O)/C=C/c2ccccc2C)s1 | > 22.4 µM | > 22.4 µM |  |
| COc1c2occc2c([N+](=O)[O-])c2ccc(=O)oc12 | > 30.9 µM | 26.3 µM |  |
| c1cc[c]([Pb]([c]2ccccc2)[c]2ccccc2)cc1 |  |  | inactive |
| CC(C)CC(NC(=O)c1cccc(O)c1O)C(=O)NCc1cc(CNC(=O)C(CC(C)C)NC(=O)c2cccc(O)c2O)cc(CNC(=O)C(CC(C)C)NC(=O)c2cccc(O)c2O)c1 (stereo unspecified) |  |  | inactive |
| Cc1ccc(-c2n[nH]c(=O)n2NC(=O)c2ccccc2C(=O)O)cc1 |  |  | inactive |
| Cc1cc(C)nc(NS(=O)(=O)c2ccc(NC(=O)c3cccc4c(NNc5ccc(S(=O)(=O)N=C(N)N)cc5)c5ccccc5nc34)cc2)n1 | > 100 µM | 50.1 µM |  |
| CC(=O)NNC(=S)/N=C/C(C(=O)Nc1ccc(Cl)cc1)=C(\C)O |  |  | inactive |
| CCN1C[C@]2(COC)CCC(O)C34[C@@H]5C[C@@H]6C(O)[C@@H]5[C@](O)(C[C@@H]6OC)[C@@H](C(OC)[C@@H]32)[C@H]14 (stereo partly specified) |  |  | inactive |
| N#Cc1nc(C#N)n(C(=O)c2ccccc2)c1NC(=O)c1ccccc1 | > 200 µM | > 200 µM |  |
| OC(C#CCN1CCCC1)(c1ccccc1)c1ccc(Cl)cc1.[C-]#[O+].[C-]#[O+].[C-]#[O+].[C-]#[O+].[C-]#[O+].[C-]#[O+].[Co].[Co] (stereo unspecified) | > 200 µM | 5.62 µM |  |
| CC(=O)SCCCn1c(=O)n(CCCSC(C)=O)c(=O)n(CCCSC(C)=O)c1=O | > 200 µM | 12.3 µM |  |
| CC(C)C(NC(=O)OC(C)(C)C)C(=O)N(C)C(Cc1ccccc1)C(=O)N(C)C(C(=O)N(C)C(C(=O)O)C(C)C)C(C)C (stereo unspecified) (Boc-V[NMeF][NMeV][NMeV]-OH; configuration not given here) | > 200 µM | > 200 µM |  |
| COc1cc(N(CCC#N)CCC#N)ccc1/C(N=Nc1ccc(C(=O)O)cc1)=N/NC(=O)c1cc(Br)ccc1O | > 200 µM | 26.3 µM |  |
| N#CC(C#N)=C/C=C/c1c(Cl)cccc1Cl | > 200 µM | 2.57 µM |  |
| COc1cc2c(OC)c(-c3c(C)cc4c(C(C)C)c(OC)c(OC)cc4c3OC)c(C)cc2c(C(C)C)c1OC |  |  | inactive |
| CCOC(=O)C(NC(=O)Nc1ccccc1)(Nc1cccc(Cl)c1)C(F)(F)F (stereo unspecified) | > 200 µM | 195 µM |  |
| O=C1O[C@H](C(Cl)(Cl)Cl)N2CCCC12 (stereo partly specified) | > 204 µM | > 204 µM |  |
| Cc1ccc(S(=O)(=O)SCc2ccccc2)cc1 | > 67.6 µM | 5.62 µM |  |
| CC(=O)Oc1ccccc1-c1cc2ccccc2oc1=O | > 200 µM | > 100 µM |  |
| COc1ccc(-n2cnnc2-c2nsc3ccccc23)cc1 | > 85.1 µM | 55 µM |  |
| CCC1(CCO)C(=O)NC(=Nc2ccccc2)NC1=O (stereo unspecified) | > 479 µM | > 479 µM |  |
| NC(=O)C(CSSCC(NC(=O)OCc1ccccc1)C(N)=O)NC(=O)OCc1ccccc1 (stereo unspecified) | > 200 µM | 18.2 µM |  |
| CCOc1cc2c(cnc3c4cc(OC)c(OC)cc4ccc23)cc1OC | > 27.5 µM | > 27.5 µM |  |
| CN(C)CCOc1ccc([N+](=O)[O-])c2cccnc12 | > 100 µM | 50.1 µM |  |
| COc1ccc(-c2c3c(n(C4OC(CO)C(O)C(O)C4O)c(=S)c2C#N)CC(C)(C)CC3=O)cc1 (stereo unspecified) | > 200 µM | 105 µM |  |

| Compound | EC50 | IC50 | outcome |
| --- | --- | --- | --- |
| O=C1CSC(=Nc2ccccc2)N1c1ncccn1 | > 47.9 µM | > 47.9 µM |  |
| CC(C)(c1ccsc1)c1sccc1C(=O)O | > 200 µM | > 200 µM |  |
| O=C1CCC2(c3ccc(F)cc3)Nc3ncccc3N12 (stereo unspecified) | > 132 µM | > 132 µM |  |
| CC1=NNC(=O)C1 | > 200 µM | 66.1 µM |  |
| CN1CCC(O)(C(C)(C)C)CC1 | > 200 µM | > 200 µM |  |
| CC1=C(C(=O)Nc2ccccc2C)C(c2ccc([N+](=O)[O-])cc2)C(C(=O)Nc2ccccc2C)=C(C)N1 | > 10.5 µM | > 10.5 µM |  |
| Cc1ccc2ccc(=O)oc2c1 | > 309 µM | > 309 µM |  |
| CC(C)(CCCCC(C)(C)NC1=NCCO1)NC1=NCCO1 | > 200 µM | 77.6 µM |  |
| CCCCCSP(=S)(C(C)C)C(C)C | > 200 µM | 115 µM |  |
| CCOc1cc2c(cc1OC)c[n+](C)c1c3cc(OC)c(OC)cc3ccc21 |  |  | inactive |
| CC(CCC(=O)O)[C@H]1CCC2[C@H]3C(CC[C@@]21C)[C@@]1(C)CCC(O)C[C@H]1C[C@@H]3O (stereo partly specified) | > 200 µM | > 100 µM |  |
| Cc1cn(C2OCC(CO)C2O)c(=O)[nH]c1=O (stereo unspecified) | > 200 µM | > 200 µM |  |
| CC(C(=O)O)c1ccc2oc(-c3ccc(Cl)cc3)nc2c1 (stereo unspecified) | > 200 µM | > 200 µM |  |
| CC1(C)C/C=C\CCC(O)C(O)CCC(C)(C)C1=O (stereo unspecified) | > 200 µM | > 200 µM |  |
| O=C(c1ccccc1)N1OCCC1Nc1ccc(Br)cc1 (stereo unspecified) |  |  | inactive |
| COc1ccc(NC(=O)CC(=O)N2N=C(C)C(N=Nc3ccc(S(=O)(=O)c4ccc(N=NC5C(=O)N(C(=O)CC(=O)Nc6ccc(OC)cc6)N=C5C)cc4)cc3)C2=O)cc1 (stereo unspecified) | > 100 µM | 95.5 µM |  |
| COc1cc(-c2nn3c(=O)n(-c4ccc(Cl)cc4)c(=O)nc3s2)cc(OC)c1OC | > 0.813 µM | > 0.813 µM |  |
| CCC12C=CCN3CC[C@@]4(c5cc([C@@]6(C(=O)OC)CC7CN(C[C@]8(CC)OC78)[C@H](CC(C)=O)Cc7c6[nH]c6ccccc76)c(OC)cc5N(C)[C@H]4[C@@](O)(C(=O)OC)[C@@H]1OC(C)=O)[C@H]32 (stereo partly specified) |  |  | inactive |
| CC(NNC(=O)c1ccncc1)c1ccc(Cl)cc1Cl (stereo unspecified) | > 200 µM | 132 µM |  |
| COc1cc2c(cc1OC)OC(c1c(OC)ccc(OC)c1O)CC2 (stereo unspecified) | > 100 µM | > 100 µM |  |
| COc1cc(C)cc2c1C(=O)C(Br)(Br)CC2 | > 2 µM | 0.955 µM |  |
| COc1ccc(-c2n[nH]c3nc4ccccc4n3c2=O)cc1 | > 200 µM | > 200 µM |  |
| c1ccc2c3c([nH]c2c1)CCc1cncnc1-3 | > 200 µM | 12 µM |  |
| O=S(=O)(O)OCC1OC2OC3C(COS(=O)(=O)O)OC(OC4C(COS(=O)(=O)O)OC(OC5C(COS(=O)(=O)O)OC(OC6C(COS(=O)(=O)O)OC(OC7C(COS(=O)(=O)O)OC(OC8C(COS(=O)(=O)O)OC(OC1C(OS(=O)(=O)O)C2OS(=O)(=O)O)C(OS(=O)(=O)O)C8OS(=O)(=O)O)C(OS(=O)(=O)O)C7OS(=O)(=O)O)C(OS(=O)(=O)O)C6OS(=O)(=O)O)C(OS(=O)(=O)O)C5OS(=O)(=O)O)C(OS(=O)(=O)O)C4OS(=O)(=O)O)C(OS(=O)(=O)O)C3OS(=O)(=O)O (stereo unspecified) | 21.4 µM and > 50.1 µM | 75.9 µM and > 50.1 µM |  |
| C[C@]12CC[C@@H]3c4cc(OCC(F)(F)F)c(O)cc4/C(=N/O)C[C@H]3[C@@H]1CC[C@@H]2O | > 0.2 µM | 0.0933 µM |  |
| C=C1CCC(=O)NC1=O |  |  | inactive |
| CN1C(=O)CNC(=O)c2ncn(C3OC(CO)C(O)C3O)c21 (stereo unspecified) | > 229 µM | > 229 µM |  |

| Compound | EC50 | IC50 | outcome |
| --- | --- | --- | --- |
| O=c1[nH]c2cnn(-c3ccccc3)c2c(=O)n1O | > 200 µM | 21.4 µM |  |
| Oc1ccc(-c2cc(-c3cc(-c4ccc(O)cc4)no3)on2)cc1 | > 200 µM | 6.31 µM |  |
| CCCCCN(CCCCC)CC(=O)OCC1(C)CCCC2(C)C3CCC(C(C)C)=CC3=CCC12 (stereo unspecified) | > 200 µM | 35.5 µM |  |
| CCOc1cc2cnc3c4cc(OC)c(OC)cc4ccc3c2cc1OC | > 70.8 µM | 34.7 µM |  |
| CN(C)CCNCCCNc1c2ccccc2nc2cccc([N+](=O)[O-])c12 | > 2 µM | 0.0129 µM |  |
| O=C1CSC(c2c[nH]c3ccccc23)N1c1ccccc1[N+](=O)[O-] (stereo unspecified) | > 389 µM | > 389 µM |  |
| Cc1ccc(Nc2nc(C)c(C(/C=C/c3ccc(/C=C/C(=N/NC(=O)C[n+]4ccccc4)c4sc(Nc5ccc(C)cc5[N+](=O)[O-])nc4C)cc3)=N\NC(=O)C[n+]3ccccc3)s2)c([N+](=O)[O-])c1 | > 35.5 µM | > 35.5 µM |  |
| CO/N=C/c1cc(OC)c(OC)c(OC)c1 | > 813 µM | > 813 µM |  |
| CC1NC(/C(=C/c2ccccc2O)NC(=O)c2ccccc2)OC1=O (stereo unspecified) | > 50.1 µM | > 50.1 µM |  |
| OCCNC(=S)SSC(=S)NCCO |  |  | inactive |
| CCOC(=O)C(CC(=O)OC)NC(=O)C(CC(=O)OC)NC(=O)C(CC(=O)OC)NC(=O)C(CC(=O)OC)NC(=O)OCc1ccccc1 (stereo unspecified) (Cbz-D(OMe)D(OMe)D(OMe)D(OMe)-OEt; configuration not given here) | > 200 µM | > 200 µM |  |
| O=C(O)c1nn(-c2ccccn2)c(O)c1N=Nc1ccc(/C=C/c2ccc(N=Nc3c(C(=O)O)nn(-c4ccccn4)c3O)cc2S(=O)(=O)O)c(S(=O)(=O)O)c1 | > 20.4 µM | > 20.4 µM |  |
| CN(C)CCC(=O)c1ccccc1 |  |  | inactive |
| O=C(N/C(=C\c1ccc(Br)cc1)c1nc2ccccc2[nH]1)c1ccccc1 | > 61.7 µM | 33.9 µM |  |
| Cc1ccc(N=NC(C2=NC(=O)CS2)c2nc3ccccc3[nH]2)cc1 (stereo unspecified) | > 7.41 µM | > 7.41 µM |  |
| CCOC(=O)CC(NCCSS(=O)(=O)O)C(=O)OCC (stereo unspecified) | > 200 µM | > 200 µM |  |
| Clc1ccc(CN2COc3c(cc(Cl)c4cccnc34)C2)cc1Cl | > 200 µM | 1.07 µM |  |
| CC(C)C1CC[C@@H](C)C[C@@]1(O)CC(N)=O (stereo partly specified) |  |  | inactive |
| O=c1c2ncn(C3CCCO3)c2n(-c2ccccc2)c(=S)n1-c1ccccc1 (stereo unspecified) | > 200 µM | > 200 µM |  |
| O=C(CC(O)(C(F)(F)F)C(F)(F)F)c1ccc(Cl)cc1 | > 200 µM | > 200 µM |  |
| C/C(CN1C(=O)c2ccccc2C1=O)=N\NS(=O)(=O)c1ccccc1 | > 20.4 µM | > 20.4 µM |  |
| N#CSC1=C(SC#N)C(=O)c2ccccc2C1=O | > 200 µM | 12.3 µM |  |
| CCOC(=O)C1=CN/C(=C(/C)C(=O)OC)SC1C(=O)OCC (stereo unspecified) | > 200 µM | 37.2 µM |  |
| Cc1c(C(=O)c2ccccc2)n(COCCC[Se]c2ccccc2)c(=O)[nH]c1=O | > 200 µM | 18.2 µM |  |
| Cc1cc(/C=C2\C=Cc3ccccc32)ccc1N(C)C | > 38 µM | > 38 µM |  |
| Cc1ccccc1NC(=O)O/N=C(\Cl)C(C)C | > 20 µM | 3.16 µM |  |
